This is an account of results in article PMC9421654, “Discovery of Substituted Di(pyridin-2-yl)-1,2,4-thiadiazol-5-amines as Novel Macrofilaricidal Compounds for the Treatment of Human Filarial Infections” (Journal of Medicinal Chemistry, 2022).

One may read the inhibition as the change of the read-out against control, counted positive when it falls. For orientation: IC50 means the midpoint of a concentration-inhibition curve. By AUC(0-inf) is commonly meant the area under the concentration-time curve extrapolated to infinity. Higher therefore signals more exposure. As a reminder, the Cmax is the highest concentration seen after dosing. What is called Tmax is the time at which the peak concentration occurs. In general, bioavailability refers to dose-corrected exposure relative to a reference, in per cent. Low values mean poor availability, high ones good availability.

Data set [1] can be described thus: Liver S9 metabolic stability assay, human. The conditions noted are these: 3 μM, 60 min. The data set is classed as in vitro ADME. The gist of the method: (§1)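 Rat and human liver S9 (0.75 and 1.2 mg/ml) with 1 mM NADPH, 0.5 mM UDPGA, 2.5 mM GSH, 0.05 mg/ml PAPS, 3µM substrate, 60 min at 37 °C in Tris/MgCl2 pH 7.4. Mouse microsomes 0.3 mg/mL, 1 mM NADPH, 3µM, 30 min, phosphate pH 7.4. LC-MS/MS, % remaining, triplicate.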

For data set [2], the system named is O. volvulus L5 larvae. The data set can be described thus: O. volvulus L5 ex vivo assay, motility. The note with it: Onchocerca volvulus, 504 h, read-out: O. volvulus L5 % inhibition of motility. The data set is classed as cell-based. On the procedure:
O. volvulus larvae (L4) were prepared using cryopreserved O. volvulus L3 cultured in a medium containing 1:1 NCTC-109 and IMDM (Iscove’s modified Dulbecco’s medium) supplemented with Glutamax (1×) and 2× Antibiotic-Antimycotic (Life Technologies). This culturing medium was then added in transwell 24-well plates containing human umbilical vein endothelial cell (HUVEC) monolayers, containing the L4 larvae. A week prior to conducting an assay, the cultured O. volvulus larvae (L5) were transferred into a Petri dish containing fresh medium. Aliquots of 8–10 worms were retrieved from the Petri dish and placed inside new transwells over newly seeded HUVEC monolayers in the medium described above. After the transfer of O. volvulus L5 to the plates, the test compounds were dissolved in DMSO, added to each well, and incubated at 37 °C in a 5% CO2. The media containing freshly prepared compounds were partially replaced every 2–3 days for 14 days. After 14 days, the media were completely replaced. The untreated control contains the media described above with a final concentration of 0.05% DMSO. The motility was measured every 2–3 days with the following scale: 100% motility, constant coiling movement; 75% motility, slower coiling; 50% motility, slow and intermittent movement; 25% motility, very slow movement or twitching; and 0% motility, no movement. The motility was measured visually by two operators. On day 28, the viability of O. volvulus L5 was measured by MTT. Following washout and incubation during 1 h in PBS under 5% CO2, worms were observed under an inverted microscope. Worms were considered dead if no staining or less than 50% within the worm was observed. Otherwise, if worms stained blue or more than 50% stained, then they are considered alive. All test treatments were performed in duplicates. Significance was determined using a t test.

Data set [3] has as its system CEREP receptor, ion channel, transporter panel. The data set can be described thus: Eurofins CEREP non-kinase panel, binding. The note with it: binding at 10 μM, targets with >70%. On the procedure:
[36] Eurofins Cerep, Le Bois l’Evêque B.P. 30001, 86 600 Celle l’Evescault, France. Compound binding was calculated as a % inhibition of the binding of a radioactively labeled ligand specific for each target.

The test system of a further data set is THLE-2 cells. The data set can be described thus: THLE-2 cytotoxicity assay (ATP). Put shortly: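 THLE-2 cells in supplemented LHC-8 medium were exposed for 24 or 72 h to final concentrations of 0.01–300 μM. Viability was read as ATP by CellTiter-Glo luminescence and normalized to DMSO vehicle. IC50 came from nonlinear regression of dose-response curves.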

Data set [4] concerns L. sigmodontis adult worms.
A further data set addresses CYP2D6 (Homo sapiens, UniProt P10635). Briefly: Cytochrome P450 inhibition, 2D6. The data set is classed as in vitro ADME. The conditions noted are these: read-out: Cytochrome P450s IC50, 2D6.
The next data set is described as follows: Mouse pharmacokinetics. The data set is classed as in vivo. The text has this: All animal experiments were approved by the Institutional Animal Care and Use Committee (IACUC) of Bristol Myers Squibb.
Data set [5] has as its system O. volvulus L5 larvae. The data set can be described thus: O. volvulus L5 ex vivo assay, MTT viability. The data set is classed as cell-based, Onchocerca volvulus. The conditions noted are these: Day 21, 1 uM. Here is the method: This culturing medium was then added in transwell 24-well plates containing human umbilical vein endothelial cell (HUVEC) monolayers, containing the L4 larvae. A week prior to conducting an assay, the cultured O. volvulus larvae (L5) were transferred into a Petri dish containing fresh medium. […] After the transfer of O. volvulus L5 to the plates, the test compounds were dissolved in DMSO, added to each well, and incubated at 37 °C in a 5% CO2. The media containing freshly prepared compounds were partially replaced every 2–3 days for 14 days. After 14 days, the media were completely replaced. The untreated control contains the media described above with a final concentration of 0.05% DMSO. […] The motility was measured visually by two operators. […] Following washout and incubation during 1 h in PBS under 5% CO2, worms were observed under an inverted microscope. Worms were considered dead if no staining or less than 50% within the worm was observed. Otherwise, if worms stained blue or more than 50% stained, then they are considered alive. All test treatments were performed in duplicates. Significance was determined using a t test.

Data set [6] in a line: Plasma protein binding, human. The data set is classed as in vitro ADME. The conditions noted are these: read-out: Plasma Protein Binding %, h (converted).
In data set [7] the target is T1, hERG potassium channels (KCNH2, expressed in HEK293 cells) (Homo sapiens, UniProt Q12809).
T1 construct: expressed in transfected cells
T1 sequence (Q12809 whole entry): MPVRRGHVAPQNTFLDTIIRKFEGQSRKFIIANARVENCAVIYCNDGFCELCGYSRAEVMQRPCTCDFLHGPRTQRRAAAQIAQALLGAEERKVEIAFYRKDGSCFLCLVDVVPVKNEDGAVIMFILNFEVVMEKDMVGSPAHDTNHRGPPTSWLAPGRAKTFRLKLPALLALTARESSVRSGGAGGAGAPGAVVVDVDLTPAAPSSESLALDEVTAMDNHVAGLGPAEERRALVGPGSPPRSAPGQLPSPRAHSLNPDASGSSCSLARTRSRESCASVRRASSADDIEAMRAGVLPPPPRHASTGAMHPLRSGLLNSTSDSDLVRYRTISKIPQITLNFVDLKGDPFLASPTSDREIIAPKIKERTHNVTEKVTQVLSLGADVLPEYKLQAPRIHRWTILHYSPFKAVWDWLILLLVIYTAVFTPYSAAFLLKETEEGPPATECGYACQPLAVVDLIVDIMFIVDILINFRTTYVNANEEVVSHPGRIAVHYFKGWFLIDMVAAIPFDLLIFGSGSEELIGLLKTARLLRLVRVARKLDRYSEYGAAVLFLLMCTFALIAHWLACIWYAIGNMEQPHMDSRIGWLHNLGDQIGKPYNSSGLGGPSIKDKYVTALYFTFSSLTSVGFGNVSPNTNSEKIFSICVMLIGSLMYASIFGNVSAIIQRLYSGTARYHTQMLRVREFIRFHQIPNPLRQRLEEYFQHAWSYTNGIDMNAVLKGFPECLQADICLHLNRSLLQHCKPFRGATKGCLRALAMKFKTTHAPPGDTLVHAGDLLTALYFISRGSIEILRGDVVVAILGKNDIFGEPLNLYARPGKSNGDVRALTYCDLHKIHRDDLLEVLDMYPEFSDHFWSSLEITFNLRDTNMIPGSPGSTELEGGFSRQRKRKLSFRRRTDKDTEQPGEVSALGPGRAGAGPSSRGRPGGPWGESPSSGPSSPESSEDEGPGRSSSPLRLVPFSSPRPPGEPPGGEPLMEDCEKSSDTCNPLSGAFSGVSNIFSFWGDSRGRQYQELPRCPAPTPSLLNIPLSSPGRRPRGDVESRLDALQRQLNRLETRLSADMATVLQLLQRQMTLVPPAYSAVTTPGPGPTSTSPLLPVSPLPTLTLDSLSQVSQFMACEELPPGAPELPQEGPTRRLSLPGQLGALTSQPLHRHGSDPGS
The data set can be described thus: hERG inhibition. The data set is classed as cell-based. The note with it: supplement.

A short description of data set [8]: Liver S9 metabolic stability assay, rat. The data set is classed as in vitro ADME. The conditions noted are these: 3 μM, 60 min. The gist of the method:
as §1

The mark [9] stands for this setting: female BALB/c mouse, PO 30 mg/kg.
Where [10] appears, read: male CD-1 mouse, PO 10 mg/kg suspension.

Read-outs that look alike come from different tables or passages of the source. Marks after values point to notes of the source that are not given here. Bounds are passed on as bounds.

Sequence of CYP2D6 (P10635 whole entry): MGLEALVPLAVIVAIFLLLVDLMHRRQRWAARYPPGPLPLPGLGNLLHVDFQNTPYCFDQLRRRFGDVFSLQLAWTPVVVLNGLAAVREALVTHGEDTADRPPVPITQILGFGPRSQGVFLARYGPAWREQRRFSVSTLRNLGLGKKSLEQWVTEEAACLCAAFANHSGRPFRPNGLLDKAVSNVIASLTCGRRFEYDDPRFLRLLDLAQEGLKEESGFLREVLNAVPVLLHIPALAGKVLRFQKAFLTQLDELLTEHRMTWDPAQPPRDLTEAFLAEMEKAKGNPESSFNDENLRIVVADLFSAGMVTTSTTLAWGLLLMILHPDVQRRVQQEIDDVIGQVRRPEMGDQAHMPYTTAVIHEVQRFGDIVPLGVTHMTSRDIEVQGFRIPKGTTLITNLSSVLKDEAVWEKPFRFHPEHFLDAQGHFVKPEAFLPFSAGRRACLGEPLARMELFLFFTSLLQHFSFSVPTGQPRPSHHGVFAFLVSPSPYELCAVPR

In the case of `CC(C)Oc1ccc(-c2nsc(Nc3ncccc3N(C)C)n2)nc1` [Compound 31, N^2-(3-(5-Isopropoxypyridin-2-yl)-1,2,4-thiadiazol-5-yl)-N3,N3-dimethylpyridine-2,3-diamine], the “Human S9 metabolic stability” value in [1] came to 86 % remaining. In the data set on O. volvulus L5 larvae [2], the inhibition at 1 µM is 100%. Moreover, the “CEREP receptor, ion channel, transporter panel: targets bound / tested” value in data set [3] is reported as 5/76. Moreover, the IC50 with THLE-2 cells (Homo sapiens, THLE-2, 24 h, read-out: THLE IC50) is 36 µM; on CYP2D6, over 30 µM; in data set [7] it was 8 µM. Moreover, the “THLE (cytotoxicity) ATP LC50” value with THLE-2 cells (THLE-2 cell line) was “did not exhibit significant cellular cytotoxity”. In addition, in [4] (mice infected SC with 40 L3 larvae, 30 mg/kg BID 7d oral, figure prints reduction as negative value), the “adult worm burden reduction” value is -97.1%. The “reduction of adult worm burden” value in data set [4] (mice, 30 mg/kg BID, 6 days of dosing) is reported as 97%. Moreover, the Kp at 2 h in “Mouse pharmacokinetics” (brain and plasma, female BALB/c mouse, PO 30 mg/kg, 2 h, read-out: brain/plasma [b]/[p]) is 1.1. Besides, the figures for the total exposure AUC(0-inf) in “Mouse pharmacokinetics” (setting [9]) and in “Mouse pharmacokinetics” (setting [10]) were 4.66 ± 0.54 µM·h and 0.94 ^h μM·h, respectively. The results for the maximum concentration (Cmax) in “Mouse pharmacokinetics” (setting [9]) and in “Mouse pharmacokinetics” (setting [10]) were 5180 nM and 650 nM, respectively. Besides, the Tmax was found to be 30 min in “Mouse pharmacokinetics” (setting [9]) and 30 min in the data set “Mouse pharmacokinetics” (plasma, male CD-1 mouse, PO 10 mg/kg suspension, read-out: Tmax). Also, the Vd in the data set “Mouse pharmacokinetics” (in vivo, male CD-1 mouse, IV 2 mg/kg, read-out: Vdss) was 3.01 L/kg. The same compound showed a Cl in the data set “Mouse pharmacokinetics” (male CD-1 mouse, IV 2 mg/kg) of 62.9 mL/min/kg. Moreover, the bioavailability in the data set “Mouse pharmacokinetics” (plasma, male CD-1 mouse, PO 10 mg/kg vs IV 2 mg/kg) was 13%. For the same compound, the “O. volvulus L5 % inhibition of viability” value in the data set with O. volvulus L5 larvae [5] was 100%. In [6], the fraction unbound is under 0.01. Besides, in data set [8], the “Rat S9 metabolic stability” value is 79 % remaining.
